One data set relates to HIV-2 positive sera. Put plainly: ELISA, single peptides identifying HIV-2 positive sera. The data set is classed as binding, human. To be noted: single peptide. The method, then:
A preferred convenient and classical technique for the determination of antibodies against AIDS virus using a peptide or a peptide mixture of the present invention is an enzyme-linked immunosorbent assay (ELISA). According to this test a peptide or a peptide mixture of the present invention is adsorbed onto the wells of a microtiter plate. The wells are then treated with sera to be tested. After washing, anti-human IgG labeled with peroxidase is added to the wells. The determination of the peroxidase is performed with a corresponding substrate, e.g. with o-phenylene diamine. Also in this procedure the peroxidase can be exchanged by another label, e.g. by a radioactive or fluorescence label. […]
TABLE 4 provides the results of single peptides which were individually evaluated in identifying known HIV-2 positive sera.
Each well of the microtiter plate is saturated with 100 µl of a solution containing a peptide or mixture of peptides (5 µg/ml) and left overnight. […] Serum samples to be analyzed are diluted with specimen buffer (washing buffer plus casein, 0.05% w/v). […] After 10 minutes the contents of each well is treated with 0.1 ml 2N H2SO4 and the optical density read at 450 nm. […]
(An ELISA detects its analyte on a solid surface through an enzyme-linked reagent.)

The next data set has as its system HIV-1 positive sera. As to the kind of experiment: ELISA, single peptides identifying HIV-1 positive sera. To be noted: single gp41 or gp120 peptide. The data set is classed as binding, human. The procedure: According to this test a peptide or a peptide mixture of the present invention is adsorbed onto the wells of a microtiter plate. The wells are then treated with sera to be tested. After washing, anti-human IgG labeled with peroxidase is added to the wells. The determination of the peroxidase is performed with a corresponding substrate, e.g. with o-phenylene diamine. Also in this procedure the peroxidase can be exchanged by another label, e.g. by a radioactive or fluorescence label.
(§1) Each well of the microtiter plate is saturated with 100 µl of a solution containing a peptide or mixture of peptides (5 µg/ml) and left overnight. The wells are emptied and washed twice with a washing buffer (Tris, 0.043M; NaCl, 0.5M;thimerosal, 0.01% w/v; Tween 20, 0.05% v/v; pH 7.4). The wells are then saturated with […] of washing buffer for 1 hr. at 37°C and washed once with the same buffer. Serum samples to be analyzed are diluted with specimen buffer (washing buffer plus casein, 0.05% w/v). The bells are rinsed with washing buffer prior to the addition of the diluted serum sample (0.1 ml). These are left to incubate for 1 hr. at room temperature. The wells are then emptied, washed twice rapidly and then once for two minutes with washing buffer. […] The wells are then emptied and washed twice rapidly with washing buffer and then five times in which the buffer was in contact with the well 2 minutes per washing. The substrate solution (3,3', 5,5'-tetramethylbenzidine, 8 mg per ml of DMSO) is diluted with 100 volumes 0.1 M citrate-acetate buffer, pH 5.6 containing 0.1% v/v of 30% H2O2 and added to each well (0.1 ml per well). After 10 minutes the contents of each well is treated with 0.1 ml 2N H2SO4 and the optical density read at 450 nm. All determinations are done in duplicate.

The next data set concerns HIV-1-antibodies. Put plainly: ELISA optical density of serially diluted sera, cyclic versus non-cyclic peptides. The data set is classed as binding, human. To be noted: coated at 0.5 µg/ml.
Excerpt: TABLE 5 is provided to illustrate the sensitivity of cyclic versus non-cyclic peptides in the ELISA test by comparing the results of some sera at various dilutions.
Even though results presented in TABLE 5 clearly show the superiority of cyclic peptides over their linear counterpart in detecting HIV-1-antibodies, that increased sensitivity could have been underestimated because of probable cyclization and polymerization of the linear peptide after solubilization in a carbonate buffer (pH 9.6). That experiment was repeated with the linear 87 and cyclic 87c peptides dissolved in a carbonate buffer (pH 9.6) as before and also in 10% acetic acid (pH 2.7). […] It is believed that cyclization and polymerization also occured in the wells of the microtiter plates although the exact proportion of cyclic peptide bound to the plates versus linear has not been as yet determined. […]
as §1

Data set [1] concerns HIV-1 positive serum samples. Put plainly: ELISA serum titers on plates coated with cyclic versus linear peptide. The data set is classed as binding, human. To be noted: for serum titer (serum dilution giving an absorbancy reading of 1.0): coated at 10 µg/ml.
Excerpt: (§2) Even though results presented in TABLE 5 clearly show the superiority of cyclic peptides over their linear counterpart in detecting HIV-1-antibodies, that increased sensitivity could have been underestimated because of probable cyclization and polymerization of the linear peptide after solubilization in a carbonate buffer (pH 9.6). That experiment was repeated with the linear 87 and cyclic 87c peptides dissolved in a carbonate buffer (pH 9.6) as before and also in 10% acetic acid (pH 2.7). […] It is believed that cyclization and polymerization also occured in the wells of the microtiter plates although the exact proportion of cyclic peptide bound to the plates versus linear has not been as yet determined.
Plates used in this experiment were coated with solutions of peptides at 10 µg/ml. (Experimental results of TABLE 5 were obtained with plates coated with peptides at 0.5 µg/ml). Four different HIV-1 positive serum samples were serially diluted and their titers determined. The titer was defined as the serum dilution giving an absorbancy reading of 1.0 in the conditions of the ELISA procedure already described.
The ratios of sensitivities measured with the cyclic peptide over the linear 87 peptide vary between 1.3 and 2.2 with an average of 1.8. These ratios are even larger, varying from 3.0 to 4.5, when the sensitivity of the ELISA test using the cyclic 87c peptide is compared using conditions (acidic pH) where the linear 87 peptide remains linear and is not allowed to cyclize or polymerize.
as §1

A short description of data set [2]: Stability of linear and cyclic peptide in coating buffers (HPLC, Ellman's test). The data set is classed as physicochemical. To be noted: 10% acetic acid (pH 2.7).
Excerpt: as §2
For orientation: Ellman's reagent forms a yellow product with free thiols.

Positions of bridges follow the written chain, without caps; N, C: chain ends. Residues, ends and D or L forms follow the SMILES beside them.

With `CC[C@H](C)[C@H](NC(=O)[C@H](CCC(=O)O)NC(=O)[C@@H](NC(=O)[C@@H](N)CC(C)C)C(C)C)C(=O)N[C@H](C(=O)N1CCC[C@H]1C(=O)N[C@H](C(=O)NCC(=O)N[C@@H](Cc1ccccc1)C(=O)N[C@@H](C)C(=O)N1CCC[C@H]1C(=O)N[C@H](C(=O)N[C@@H](CCCCN)C(=O)N[C@@H](CCC(=O)O)C(=O)N[C@@H](CCCCN)C(=O)N[C@@H](CCCNC(=N)N)C(=O)O)[C@@H](C)O)[C@@H](C)CC)[C@@H](C)O` [Peptide 204], the “%Positive sera correctly Identified” value in the data set with HIV-2 positive sera amounted to 100%.
Turning to `CC[C@H](C)[C@H](NC(=O)CNC(=O)[C@H](CC(C)C)NC(=O)[C@H](CC(C)C)NC(=O)[C@H](CCC(N)=O)NC(=O)[C@H](CCC(N)=O)NC(=O)[C@H](CC(=O)O)NC(=O)[C@H](CCCCN)NC(=O)[C@H](CC(C)C)NC(=O)[C@H](Cc1ccc(O)cc1)NC(=O)[C@H](CCCNC(=N)N)NC(=O)[C@H](CCC(=O)O)NC(=O)[C@@H](NC(=O)[C@H](C)NC(=O)[C@H](CC(C)C)NC(=O)[C@@H](NC(=O)[C@@H](N)CCCNC(=N)N)[C@@H](C)CC)C(C)C)C(=O)N[C@@H](Cc1c[nH]c2ccccc12)C(=O)NCC(=O)N[C@H]1CSSC[C@@H](C(=O)N[C@H](C(=O)N[C@H](C(=O)N[C@@H](C)C(=O)N[C@H](C(=O)N2CCC[C@H]2C(=O)N[C@@H](Cc2c[nH]c3ccccc23)C(=O)N[C@@H](CC(N)=O)C(=O)N[C@@H](C)C(=O)N[C@@H](CO)C(=O)O)C(C)C)[C@@H](C)O)[C@@H](C)O)NC(=O)[C@H]([C@@H](C)CC)NC(=O)[C@H](CC(C)C)NC(=O)[C@H](CCCCN)NC(=O)CNC(=O)[C@H](CO)NC1=O` [Peptide 87c] (H-RILAVERYLKDQQLLGIWGCSGKLICTTAVPWNAS-OH; disulfide 20-26), the “% Positive Sera correctly Idenfitied” value in the data set with HIV-1 positive sera is recorded as 99%. Further, the “Relative performance in ELISA (optical density)” value (from here on “Relative performance in ELISA”) is on record as 0.011 optical density units in the data set with HIV-1-antibodies (serum 87V103, dilution 1/50); over 2.0 optical density units in the data set on HIV-1-antibodies (serum 1428, dilution 1/50); over 2.0 optical density units in the data set with HIV-1-antibodies (serum M-5, dilution 1 50); over 2.0 optical density units in the data set with HIV-1-antibodies (serum M-5, dilution 1/100); over 2.0 optical density units in the data set on HIV-1-antibodies (serum M-5, dilution 1/200); over 2.0 optical density units in the data set on HIV-1-antibodies (serum M-5, dilution 1/400). Also, the “Relative performance in ELISA” value is 1.854 optical density units in the data set on HIV-1-antibodies (serum M-5, dilution 1/800); over 2.0 optical density units in the data set with HIV-1-antibodies (serum M-7, dilution 1/50); over 2.0 optical density units in the data set with HIV-1-antibodies (serum M-7, dilution 1/100); 1.729 optical density units with HIV-1-antibodies (serum M-7, dilution 1/200); 1.348 optical density units in the data set with HIV-1-antibodies (serum M-7, dilution 1/400); 0.611 optical density units in the data set on HIV-1-antibodies (serum M-7, dilution 1/800). For the same molecule, the “Relative performance in ELISA” value in the data set on HIV-1-antibodies (serum M-8, dilution 1/50) is on record as over 2.0 optical density units; in the data set with HIV-1-antibodies (serum M-8, dilution 1/100), over 2.0 optical density units; in the data set with HIV-1-antibodies (serum M-8, dilution 1/200) it was 1.655 optical density units; in the data set with HIV-1-antibodies (serum M-8, dilution 1/400), 1.064 optical density units; in the data set with HIV-1-antibodies (serum M-8, dilution 1/800) it was 0.384 optical density units; with HIV-1-antibodies (serum M-16, dilution 1/50) it was over 2.0 optical density units. The “Relative performance in ELISA” value is over 2.0 optical density units with HIV-1-antibodies (serum M-16, dilution 1/100); over 2.0 optical density units with HIV-1-antibodies (serum M-16, dilution 1/200); over 2.0 optical density units in the data set on HIV-1-antibodies (serum M-16, dilution 1/400); 1.962 optical density units in the data set on HIV-1-antibodies (serum M-16, dilution 1/800). Also, the “A B (titer 87c cyclic over titer 87 linear)” value in data set [1] (10% Acetic Acid (pH 2.7), serum M-5) is listed as 3.0; in data set [1] (10% Acetic Acid (pH 2.7), serum M-7), 3.9; in data set [1] (10% Acetic Acid (pH 2.7), serum M-8), 4.5; in data set [1] (10% Acetic Acid (pH 2.7), serum M-16), 3.7; in data set [1] (Carbonate Bicarbonate 0.1M (pH 9.6), serum M-5), 1.3; in data set [1] (Carbonate Bicarbonate 0.1M (pH 9.6), serum M-7), 1.8. The “A B (titer 87c cyclic over titer 87 linear)” value is on record as 2.2 in data set [1] (Carbonate Bicarbonate 0.1M (pH 9.6), serum M-8) and 1.7 in data set [1] (Carbonate Bicarbonate 0.1M (pH 9.6), serum M-16). Further, the “ratios of sensitivities measured with the cyclic peptide over the linear 87 peptide, average” value in data set [1] (carbonate buffer (pH 9.6), average over four sera) is 1.8. Also, the “serum titer (serum dilution giving an absorbancy reading of 1.0)” value is reported as 13 500 in data set [1] (coating buffer 10% Acetic Acid (pH 2.7), serum M-5); 9 000 in data set [1] (coating buffer 10% Acetic Acid (pH 2.7), serum M-7); 6 300 in data set [1] (coating buffer 10% Acetic Acid (pH 2.7), serum M-8); 56 000 in data set [1] (coating buffer 10% Acetic Acid (pH 2.7), serum M-16); 13 500 in data set [1] (coating buffer Carbonate Bicarbonate 0.1M (pH 9.6), serum M-5); 11 000 in data set [1] (coating buffer Carbonate Bicarbonate 0.1M (pH 9.6), serum M-7). Besides, the “serum titer (serum dilution giving an absorbancy reading of 1.0)” value in data set [1] (coating buffer Carbonate Bicarbonate 0.1M (pH 9.6), serum M-8) was 6500; in data set [1] (coating buffer Carbonate Bicarbonate 0.1M (pH 9.6), serum M-16), 56 000. Further, the “stability in solution (HPLC, Ellman's test)” value in data set [2] is on record as “remained cyclic”.
